Article PMC8294059, “Identification and Immune Assessment of T Cell Epitopes in Five Plasmodium falciparum Blood Stage Antigens to Facilitate Vaccine Candidate Selection and Optimization” (Frontiers in Immunology, 2021)
Where a SMILES comes first, the peptide text is derived from it.

Each compound was assayed against HLA-B*0702 (Homo sapiens, UniProt P01889) (assay: In vitro class I HLA binding assay (fluorescence polarization competition)). Details: allele B*0702; fluorescence polarization competition.
Description: A cell-free class I HLA binding assay that allows for in vitro quantification of peptide-HLA binding affinity in a competition format was used. In this assay, a fluorescently labeled, high binding, control peptide is loaded onto 384-well ½-area plates along with unlabeled experimental peptides. To remove endogenous peptides and render the HLA A and B molecules receptive to binding, HLA is heated at 53°C for 15 minutes and immediately added to the assay. The mixture is then allowed to stand for three days. […] Binding of experimental peptides is expressed as the percent inhibition of the labeled control peptide (experimental fluorescence / control fluorescence, multiplied by 100). The percent inhibition values for each experimental peptide (across a range of molar concentrations) are used to calculate the concentration which inhibits 50% of the labeled control peptide’s specific binding. This value is referred to as the peptide’s IC50.
In the case of LPSAKNNCEY [RIPR_0313], the “IC50 (nM), in vitro HLA binding affinity” value is reported as “Non-binder”.
With MDMKNYGTNL [RH5_330] the “IC50 (nM), in vitro HLA binding affinity” value was “Non-binder”.
In the case of MIRIKKKLIL [RH5_001], the “IC50 (nM), in vitro HLA binding affinity” value is reported as “Non-binder”.
MNRTFKKMM [RH5_296] was tested, and the “IC50 (nM), in vitro HLA binding affinity” value was “Non-binder”.

Same assay, conditions: allele B*0702; fluorescence polarization competition; read-out: IC50 (nM), in vitro HLA binding affinity
CC(C)C[C@H](NC(=O)[C@H](CC(N)=O)NC(=O)[C@H](CCCCN)NC(=O)[C@H](CCCNC(=N)N)NC(=O)[C@@H]1CCCN1C(=O)[C@@H](N)CS)C(=O)N[C@@H](CCC(N)=O)C(=O)N[C@@H](CC(N)=O)C(=O)N[C@@H](C)C(=O)O [AMA1_302] (H-CPRKNLQNA-OH) was tested, and the IC50 was 484 nM.
CC[C@H](C)[C@H](NC(=O)[C@@H]1CCCN1C(=O)[C@@H](N)Cc1c[nH]cn1)C(=O)N[C@@H](CCC(=O)O)C(=O)N[C@H](C(=O)N[C@@H](CCC(=O)O)C(=O)N[C@@H](CC(N)=O)C(=O)N[C@@H](CC(N)=O)C(=O)N[C@@H](Cc1ccccc1)C(=O)O)C(C)C [AMA1_433] (H-HPIEVENNF-OH) gave an IC50 of 310000 nM.
In the case of CC(C)C[C@H](NC(=O)[C@@H](NC(=O)[C@@H]1CCCN1C(=O)[C@@H](NC(=O)[C@@H](NC(=O)[C@H](Cc1c[nH]cn1)NC(=O)[C@H](CO)NC(=O)[C@H](C)NC(=O)[C@@H](N)CCCNC(=N)N)[C@@H](C)O)[C@@H](C)O)C(C)C)C(=O)O [AMA1_608] (H-RASHTTPVL-OH), the IC50 is reported as 258 nM.
Compound CC[C@H](C)[C@H](N)C(=O)N1CCC[C@H]1C(=O)N[C@@H](Cc1ccccc1)C(=O)N[C@@H](Cc1c[nH]cn1)C(=O)N[C@@H](CCCCN)C(=O)N[C@@H](CCCCN)C(=O)N[C@@H](Cc1ccccc1)C(=O)N[C@H](C(=O)N[C@@H](CO)C(=O)N[C@@H](Cc1ccccc1)C(=O)O)[C@@H](C)CC [CYRPA_003] (H-IPFHKKFISF-OH) has an IC50 of 21900 nM.
